Data from patent US9427415B2, “Methods and compositions for modifying sensorial perception” (The Procter & Gamble Company, priority 2014, dated 2016).
Like-named read-outs stand apart in the source and are kept apart here.

Tests used:
human TRPV1 = biological target: T1, human TRPV1 (Homo sapiens, UniProt Q8NER1, M315I/T336M); experiment: Intracellular calcium (Fluo-4, FLIPR) activation of TRPV1 cells by GRAS compounds; format: cell-based; settings: for activation at 1000 µM / activation at 100 µM / V1 activation, % of agonist value: relative to capsaicin 350 nM; for activation at 1000 µM / activation at 100 µM: read-out: V1 activation, % of agonist value; for TRPV1 activation selectivity, in words: statement in description, see Table 1(i);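 as to all read-outs here: TRPV1-expressing cells, FLIPR fluorescence at 488/514 nm with baseline subtracted, sampled every 2 s for 10 min after adding compound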
T1 construct: expressed in transfected cells; pcDNA3 control cells
T1 sequence (Q8NER1 whole entry M315I/T336M): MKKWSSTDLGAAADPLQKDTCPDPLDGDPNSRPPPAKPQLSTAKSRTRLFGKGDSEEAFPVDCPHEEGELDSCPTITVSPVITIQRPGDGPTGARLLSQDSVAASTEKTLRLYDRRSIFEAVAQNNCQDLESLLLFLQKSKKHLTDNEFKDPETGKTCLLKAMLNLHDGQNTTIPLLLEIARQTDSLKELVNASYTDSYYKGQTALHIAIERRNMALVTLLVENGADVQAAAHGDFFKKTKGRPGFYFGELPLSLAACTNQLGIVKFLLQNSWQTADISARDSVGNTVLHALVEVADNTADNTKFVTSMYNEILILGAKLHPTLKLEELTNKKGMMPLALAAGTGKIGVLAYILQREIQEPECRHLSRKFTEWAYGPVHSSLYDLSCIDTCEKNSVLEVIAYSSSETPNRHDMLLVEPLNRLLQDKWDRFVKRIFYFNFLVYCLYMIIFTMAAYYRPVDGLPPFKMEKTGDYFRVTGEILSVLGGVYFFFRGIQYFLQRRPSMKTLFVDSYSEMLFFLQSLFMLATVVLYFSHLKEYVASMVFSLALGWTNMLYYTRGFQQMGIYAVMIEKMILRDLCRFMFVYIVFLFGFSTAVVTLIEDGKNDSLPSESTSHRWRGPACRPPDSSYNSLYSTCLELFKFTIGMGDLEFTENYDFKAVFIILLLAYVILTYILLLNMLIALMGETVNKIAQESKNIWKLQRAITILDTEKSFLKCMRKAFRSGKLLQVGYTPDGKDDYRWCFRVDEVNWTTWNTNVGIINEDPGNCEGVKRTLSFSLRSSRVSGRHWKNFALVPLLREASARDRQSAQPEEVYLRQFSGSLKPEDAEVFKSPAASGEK

human TRPA1 = biological target: T2, human TRPA1 (Homo sapiens, UniProt O75762, K186N/R3C/R58T); experiment: Intracellular calcium (Fluo-4, FLIPR) activation of TRPA1 cells by GRAS compounds; format: cell-based; settings: relative to AITC 30 μM; for activation at 1000 µM: 1 mM; for activation at 1000 µM / activation at 100 µM: read-out: A1 activation, % of agonist value;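 as to all read-outs here: TRPA1-expressing cells, fluorescence read on a FLIPR Tetra (ex 488 nm, em 514 nm) every 2 s for 10 min after compound addition, baseline subtracted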
T2 construct: expressed in transfected cells; pcDNA3 control cells
T2 sequence (O75762 whole entry R3C/R58T/K186N): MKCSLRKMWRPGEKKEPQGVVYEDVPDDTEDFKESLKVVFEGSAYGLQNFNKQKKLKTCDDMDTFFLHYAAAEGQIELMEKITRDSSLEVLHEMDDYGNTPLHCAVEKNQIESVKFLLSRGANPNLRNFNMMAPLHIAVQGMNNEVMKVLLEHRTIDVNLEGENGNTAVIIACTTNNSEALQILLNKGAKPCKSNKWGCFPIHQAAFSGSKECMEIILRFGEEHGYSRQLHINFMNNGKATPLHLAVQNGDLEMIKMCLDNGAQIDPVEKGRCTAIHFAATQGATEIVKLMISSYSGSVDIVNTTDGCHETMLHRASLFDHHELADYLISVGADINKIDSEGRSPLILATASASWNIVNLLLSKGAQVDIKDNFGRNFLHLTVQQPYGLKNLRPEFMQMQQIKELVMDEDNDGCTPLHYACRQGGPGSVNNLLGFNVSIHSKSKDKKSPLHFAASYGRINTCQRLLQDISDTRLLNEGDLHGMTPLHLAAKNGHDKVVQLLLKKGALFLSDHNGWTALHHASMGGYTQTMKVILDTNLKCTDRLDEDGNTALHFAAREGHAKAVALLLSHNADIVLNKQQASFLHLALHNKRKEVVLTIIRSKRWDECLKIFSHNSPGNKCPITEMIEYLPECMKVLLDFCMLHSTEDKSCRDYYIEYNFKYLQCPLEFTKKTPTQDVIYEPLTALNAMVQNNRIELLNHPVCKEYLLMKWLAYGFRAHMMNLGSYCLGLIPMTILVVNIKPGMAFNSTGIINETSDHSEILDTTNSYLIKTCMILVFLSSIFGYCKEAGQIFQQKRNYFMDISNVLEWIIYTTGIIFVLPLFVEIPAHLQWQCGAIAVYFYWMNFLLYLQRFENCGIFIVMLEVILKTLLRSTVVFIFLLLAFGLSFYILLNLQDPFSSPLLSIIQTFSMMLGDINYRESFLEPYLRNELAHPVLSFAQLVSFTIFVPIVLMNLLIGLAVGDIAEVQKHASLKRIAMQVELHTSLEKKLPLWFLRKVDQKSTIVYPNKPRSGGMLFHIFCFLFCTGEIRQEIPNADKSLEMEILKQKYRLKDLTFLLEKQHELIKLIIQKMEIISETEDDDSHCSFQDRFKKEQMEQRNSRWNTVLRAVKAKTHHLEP

TRPA1V1 = experiment: Intracellular calcium (Fluo-4, FLIPR) activation of TRPA1V1 cells (co-expressing TRPA1 and TRPV1) by GRAS compounds; format: cell-based, human;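 also: HEK293 cells co-expressing TRPA1 and TRPV1, fluorescence read at 488/514 nm after baseline subtraction, recorded every 2 s over 10 min, ionomycin 10 µM and buffer as controls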
Method: TRPV1, TRPA1, TRPA1V1 and pcDNA3 cells were grown in 15 mL growth medium [high glucose DMEM (Dulbecco's modification of Eagle's medium) supplemented with 10% FBS (fetal bovine serum), 100 μg/mL penicillin/streptomycin, 100 μg/mL G418] in a 75 cm^2 flask for 3 days in a mammalian cell culture incubator at 33° C. and 5% CO2. TRP Cells were detached with 8 mL of PBS (without calcium or magnesium); for pcDNA3 cells, trypsin was used for releasing the cells. The detached cells were spun at low speed (800-900 rpm for 3 min) to pellet the cells. […] The cells were washed once with 45 mL assay buffer (1×HBSS, 20 mM HEPES) by low speed centrifugation (800-900 rpm for 3 min) and resuspended in 11 mL of the assay buffer in a reagent reservoir. […] The plates were set at room temperature for 30 min. The plates were read in a FLIPR^TETRA instrument (Molecular Devices, Sunnyvale, Calif.) at λex 488 nm and λem 514 nm to record baseline fluorescence following which 20 μL of test material at 1 mM or 100 μM final concentration for pure compounds in a GRAS library or 0.004% for extracts. For agonists, capsaicin 350 nM and AITC at 30 μM; and for controls, ionomycin 10 μM and buffer alone) was added to each well using the dispenser provided in the FLIPR. The data point was recorded every 2 seconds for a total of 10 min.
Average value for activation from three independent assay plates are presented as % of agonist value (AITC, 30 μM for TRPA1 and capsaicin, 350 nM for TRPV1. For TRPA1V1, we used AITC, 30 μM or capsaicin, 350 nM depending on if the compound is an A1 agonist or a V1 agonist. For compounds that activated both A1 and V1, we used AITC for normalization). Variation among triplicates was within 10% of each other. Assayed at 1 mM for pure compounds and 0.004% for extracts.

[1] = Table 1(a), 1 mM, average of three plates
[2] = Table 1(a), average of three plates
[3] = Table 1(a), 1 mM, relative to AITC 30 μM, average of three plates
[4] = Table 1(d), 100 μM (*), relative to AITC 30 μM
[5] = Table 1(i), 100 μM (*), relative to AITC 30 μM or capsaicin 350 nM depending on compound, […]
[6] = Table 1(b), 1 mM, relative to AITC 30 μM
[7] = Table 1(a), 100 μM (*), relative to AITC 30 μM
[8] = Table 1(g), 1 mM, relative to capsaicin 350 nM
[9] = Table 1(h), 1 mM, relative to capsaicin 350 nM
[10] = Table 1(f), 1 mM, relative to capsaicin 350 nM

## C=CC(=O)CCCCC [1-Octen-3-one]
Human TRPV1; [1]
  activation at 1000 µM: 63.2%
Human TRPA1; [2]
  activation at 1000 µM: 118%
TRPA1V1; [3]
  A1V1 activation, % of agonist value: 98.9%

## CC(=O)C(=O)c1ccccc1 [1-Phenyl-1,2-propanedione]
Human TRPV1; [1]
  activation at 1000 µM: 66.6%
Human TRPA1; [2]
  activation at 1000 µM: 98.6%
Human TRPA1; Table 1(d), 100 μM (*)
  activation at 100 µM: 100%
TRPA1V1; [3]
  A1V1 activation, % of agonist value: 105.5%
TRPA1V1; [4]
  A1V1 activation, % of agonist value: 71.4%

## Cc1ccc(C)c(O)c1C [2,3,6-Trimethylphenol]
Human TRPV1; [1]
  activation at 1000 µM: 74.8%
Human TRPA1; [2]
  activation at 1000 µM: 90%
TRPA1V1; [3]
  A1V1 activation, % of agonist value: 91.4%

## CC1=NC(C)OC1C (stereo not shown) [2,4,5-Trimethyl-3-oxazoline]
Human TRPV1; Table 1(i), 100 μM (*), […]
  activation at 100 µM: 101%
Human TRPV1
  TRPV1 activation selectivity, in words: TRPV1 activators which do not modulate TRPA1 or TRPA1V1
Human TRPA1; Table 1(i), 100 μM (*), […]
  activation at 100 µM: 2.1%
TRPA1V1; [5]
  A1V1 activation, % of agonist value: 4.1%

## c1ccc(CCCc2ccccn2)cc1 [2-(3-Phenylpropyl)pyridine]
Human TRPV1; [1]
  activation at 1000 µM: 21.5%
Human TRPA1; [2]
  activation at 1000 µM: 76%
TRPA1V1; [3]
  A1V1 activation, % of agonist value: 74.53%

## O=Cc1cc2ccccc2o1 [2-Benzofurancarboxaldehyde]
Human TRPV1; [1]
  activation at 1000 µM: 57.6%
Human TRPA1; [2]
  activation at 1000 µM: 91%
TRPA1V1; [3]
  A1V1 activation, % of agonist value: 102.3%

## CCCCc1ccco1 [2-Butylfuran]
Human TRPV1; [1]
  activation at 1000 µM: 20.2%
Human TRPA1; [2]
  activation at 1000 µM: 68.5%
TRPA1V1; [3]
  A1V1 activation, % of agonist value: 62.77%

## O=C1CCCC1C1CCCC1 (stereo not shown) [2-Cyclopentylcyclopentanone]
Human TRPV1; Table 1(b), 1 mM
  activation at 1000 µM: 24%
Human TRPA1; Table 1(b)
  activation at 1000 µM: 25%
TRPA1V1; [6]
  A1V1 activation, % of agonist value: 90.8%

## CCc1ccco1 [2-Ethylfuran]
Human TRPV1; Table 1(i), 100 μM (*), […]
  activation at 100 µM: 58.7%
Human TRPV1
  TRPV1 activation selectivity, in words: TRPV1 activators which do not modulate TRPA1 or TRPA1V1
Human TRPA1; Table 1(i), 100 μM (*), […]
  activation at 100 µM: 1.2%
TRPA1V1; [5]
  A1V1 activation, % of agonist value: 1.8%

## Cc1nccnc1SCc1ccco1 [2-Furfurylthio-3-methylpyrazine]
Human TRPV1; Table 1(a), 100 μM (*)
  activation at 100 µM: 31.3%
Human TRPA1; Table 1(a), 100 μM (*)
  activation at 100 µM: 80.7%
TRPA1V1; [7]
  A1V1 activation, % of agonist value: 80.9%

## C=Cc1ccc(O)c(OC)c1 [2-Methoxy-4-vinylphenol]
Human TRPV1; [1]
  activation at 1000 µM: 20.7%
Human TRPA1; [2]
  activation at 1000 µM: 74.8%
TRPA1V1; [3]
  A1V1 activation, % of agonist value: 81.90%

## CCC(C)COC(=O)CC(C)C (stereo not shown) [2-Methylbutyl isovalerate]
Human TRPV1; Table 1(i), 1 mM, […]
  activation at 1000 µM: 75.3%
Human TRPV1
  TRPV1 activation selectivity, in words: TRPV1 activators which do not modulate TRPA1 or TRPA1V1
Human TRPA1; Table 1(i), […]
  activation at 1000 µM: 1.7%
TRPA1V1; Table 1(i), 1 mM, relative to AITC 30 μM or capsaicin 350 nM depending on compound, […]
  A1V1 activation, % of agonist value: 2.1%

## Sc1ccc2ccccc2c1 [2-Napthlaenthiol]
Human TRPV1; Table 1(a), 100 μM (*)
  V1 activation, % of agonist value: 120.3%
Human TRPA1; Table 1(a), 100 μM (*)
  A1 activation, % of agonist value: 66.3%
TRPA1V1; [7]
  A1V1 activation, % of agonist value: 85.2%

## CCCc1ccccc1O [2-Propylphenol]
Human TRPV1; [1]
  activation at 1000 µM: 96.9%
Human TRPA1; [2]
  activation at 1000 µM: 126%
TRPA1V1; [3]
  A1V1 activation, % of agonist value: 183.8%

## CC(CC=O)CC(C)(C)C (stereo not shown) [3,5,5-Trimethylhexanal]
Human TRPV1; Table 1(b), 1 mM
  activation at 1000 µM: 217%
Human TRPA1; Table 1(b)
  activation at 1000 µM: 133%
TRPA1V1; [6]
  A1V1 activation, % of agonist value: 114.7%

## CCC(S)C(C)=O (stereo not shown) [3-Mercapto-2-pentanone]
Human TRPV1; [1]
  activation at 1000 µM: 59.2%
Human TRPA1; [2]
  activation at 1000 µM: 92%
Human TRPA1; Table 1(c), 100 μM (*)
  activation at 100 µM: 103%
TRPA1V1; [3]
  A1V1 activation, % of agonist value: 72.6%
TRPA1V1; Table 1(c), 100 μM (*), relative to AITC 30 μM
  A1V1 activation, % of agonist value: 100%

## CC(=O)C(C)S (stereo not shown) [3-Mercaptobutanone, 3-Mercapto-2-butanone]
Human TRPV1; Table 1(b), 1 mM
  activation at 1000 µM: 63.8%
Human TRPA1; Table 1(b)
  activation at 1000 µM: 50.4%
Human TRPA1; Table 1(d), 100 μM (*)
  activation at 100 µM: 68.9%
TRPA1V1; [6]
  A1V1 activation, % of agonist value: 80.9%
TRPA1V1; [4]
  A1V1 activation, % of agonist value: 53.3%

## CC(C)C(C=O)c1ccccc1 (stereo not shown) [3-Methyl-2-Phenylbutyraldehyde]
Human TRPV1; [1]
  activation at 1000 µM: 75.8%
Human TRPA1; [2]
  activation at 1000 µM: 90.6%
TRPA1V1; [3]
  A1V1 activation, % of agonist value: 93.08%

## CCCC1CC(=O)C=C(C)C1 (stereo not shown) [3-Methyl-5-propyl-2-cyclohexen-1-one]
Human TRPV1; Table 1(b), 1 mM
  activation at 1000 µM: 59.2%
Human TRPA1; Table 1(b)
  activation at 1000 µM: 69%
TRPA1V1; [6]
  A1V1 activation, % of agonist value: 101.0%

## CCCCC=CC(C)=O [3-Octen-2-one]
Human TRPV1; [1]
  activation at 1000 µM: 30%
Human TRPA1; [2]
  activation at 1000 µM: 52.7%
TRPA1V1; [3]
  A1V1 activation, % of agonist value: 45.60%

## OCCCc1ccccc1 [3-Phenylpropanol]
Human TRPV1; Table 1(b), 1 mM
  activation at 1000 µM: 32%
Human TRPA1; Table 1(b)
  activation at 1000 µM: 51.4%
TRPA1V1; [6]
  A1V1 activation, % of agonist value: 64.94%

## CCCCC(=O)C(CCC)Sc1ccoc1C (stereo not shown) [4-(2-Methyl-3-furylthio)-5-nonanone]
Human TRPV1; Table 1(g), 1 mM
  activation at 1000 µM: 40.6%
Human TRPA1; Table 1(d), 100 μM (*)
  activation at 100 µM: 52.5%
TRPA1V1; [4]
  A1V1 activation, % of agonist value: 34.1%
TRPA1V1; [8]
  A1V1 activation, % of agonist value: 64%

## CC1=C(O)C(=O)CO1 [4-Hydroxy-5-methyl-3-furanone]
Human TRPV1; [1]
  activation at 1000 µM: 40.5%
Human TRPA1; [2]
  activation at 1000 µM: 58%
TRPA1V1; [3]
  A1V1 activation, % of agonist value: 38%

## O=Cc1ccc(O)cc1 [4-Hydroxybenzaldehyde]
Human TRPV1; Table 1(a), 100 μM (*)
  activation at 100 µM: 123%
Human TRPA1; Table 1(a), 100 μM (*)
  activation at 100 µM: 80.4%
Human TRPA1; Table 1(c)
  activation at 1000 µM: 63%
TRPA1V1; [7]
  A1V1 activation, % of agonist value: 163.2%
TRPA1V1; Table 1(c), 1 mM, relative to AITC 30 μM
  A1V1 activation, % of agonist value: 60.3%

## CC(O)CCc1ccccc1 (stereo not shown) [4-Phenyl-2-butanol]
Human TRPV1; Table 1(b), 1 mM
  activation at 1000 µM: 37.9%
Human TRPA1; Table 1(b)
  activation at 1000 µM: 58.8%
TRPA1V1; [6]
  A1V1 activation, % of agonist value: 81.29%

## O=C([O-])[C@H](O)[C@@H](O)[C@H](O)[C@H](O)CO.[K+] [Gluconic acid, monopotassium salt]
Human TRPV1; Table 1(h), 1 mM
  activation at 1000 µM: 33%
TRPA1V1; [9]
  A1V1 activation, % of agonist value: 14.0%

## c1ccc2[nH]ccc2c1 [Indole]
Human TRPV1; Table 1(f), 1 mM
  activation at 1000 µM: 53.3%
TRPA1V1; [10]
  A1V1 activation, % of agonist value: 42.9%

## CC(=O)CC(=O)OCC(C)C [Isobutyle acetoacetate]
Human TRPV1; Table 1(g), 1 mM
  V1 activation, % of agonist value: 54.1%
TRPA1V1; [8]
  A1V1 activation, % of agonist value: 81.9%

## O=C(O)[C@H](O)[C@@H](O)C(=O)O [L-(+)-Tartaric acid]
Human TRPV1; Table 1(h), 100 μM (marked *)
  V1 activation, % of agonist value: 60.4%
TRPA1V1; Table 1(h), 100 μM (marked *), relative to capsaicin 350 nM
  A1V1 activation, % of agonist value: 38.4%

## CCCCCCCC(=O)O [Octanoic acid]
Human TRPV1; Table 1(f), 1 mM
  activation at 1000 µM: 73.7%
TRPA1V1; [10]
  A1V1 activation, % of agonist value: 83.4%

## O=C(/C=C/C=C/c1ccc2c(c1)OCO2)N1CCCCC1 [Piperine]
Human TRPV1; Table 1(h), 1 mM
  activation at 1000 µM: 120%
TRPA1V1; [9]
  A1V1 activation, % of agonist value: 57.1%

## O=C(O)c1ccc(O)c(O)c1 [Protocatechuic acid]
Human TRPV1; Table 1(g), 1 mM
  activation at 1000 µM: 60.6%
TRPA1V1; [8]
  A1V1 activation, % of agonist value: 121.05%

## O=C(O)C(O)C(O)C(=O)O (stereo not shown) [Tartaric acid]
Human TRPV1; Table 1(h), 1 mM
  activation at 1000 µM: 55.8%
TRPA1V1; [9]
  A1V1 activation, % of agonist value: 29.6%

## CC(C=O)=Cc1ccccc1 [alpha-Methylcinnamaldehyde]
Human TRPV1; Table 1(g), 1 mM
  activation at 1000 µM: 54.6%
TRPA1V1; [8]
  A1V1 activation, % of agonist value: 104.4%

## Cc1ccc(C=O)c(O)c1 [m-Homosalicylaldehyde]
Human TRPV1; Table 1(g), 1 mM
  activation at 1000 µM: 56.5%
TRPA1V1; [8]
  A1V1 activation, % of agonist value: 140.7%

## Tolylaldehyde glyceryl acetyl
Human TRPV1; Table 1(g), 1 mM
  V1 activation, % of agonist value: 53.0%
TRPA1V1; [8]
  A1V1 activation, % of agonist value: 110.7%
